Results: US4308256A, “Method of inducing analgesia” (American Home Products Corporation, priority 1980, dated 1981)

Assays:
male Charles River rats = experiment: D'Amour-Smith rat tail-flick procedure (radiant heat, 8 second cut-off), intraventricular injection; assay type: in vivo
Protocol: Intraventricular cannulae, made of 27-gauge stainless steel tubing, are implanted in 300-400 g. male Charles River rats under pentobarbital anesthesia. After a recovery period of at least one week, the rats are restrained in a wire-mesh cylindrical chamber so that the tip of the tail can be positioned at the focal point of a radiant heat source. After an acclimatistation period of 5 minutes, the lamp is turned on and an electric clock activated. Movement of the tip of the tail exposes a photocell to the lamp, which turns off the thermal stimulus and stops the clock. If a rat fails to move its tail within 8 seconds, the heat is automatically turned off to prevent blistering. The intensity of the lamp is adjusted in each case to produce at least three baseline tail-flick latencies of 2.5-4.5 seconds. Tests are initially made every 2 minutes, then every 5 minutes and finally every 15 minutes.
Initially, using the above outlined procedure, the effects of intraventricularly administered leucine-enkephalin are tested in rats according to the above procedure.
The rat tail flick procedure is repeated, first by the simultaneous intraventricular injection of both leucine-enkephalin and bestatin and then by the initial injection of bestatin followed one hour later by the injection of leucine-enkephalin.
The above procedure is repeated again, however, the bestatin is administered first and then one hour later the leucine-enkephalin is administered.
The effects of bestatin alone are tested in rats according to the rat tail flick procedure.

aminopeptidase B = aminopeptidase B (Homo sapiens, UniProt Q9H4A4); conditions: cited from earlier work
Chain of aminopeptidase B (Q9H4A4 whole entry, species assumed): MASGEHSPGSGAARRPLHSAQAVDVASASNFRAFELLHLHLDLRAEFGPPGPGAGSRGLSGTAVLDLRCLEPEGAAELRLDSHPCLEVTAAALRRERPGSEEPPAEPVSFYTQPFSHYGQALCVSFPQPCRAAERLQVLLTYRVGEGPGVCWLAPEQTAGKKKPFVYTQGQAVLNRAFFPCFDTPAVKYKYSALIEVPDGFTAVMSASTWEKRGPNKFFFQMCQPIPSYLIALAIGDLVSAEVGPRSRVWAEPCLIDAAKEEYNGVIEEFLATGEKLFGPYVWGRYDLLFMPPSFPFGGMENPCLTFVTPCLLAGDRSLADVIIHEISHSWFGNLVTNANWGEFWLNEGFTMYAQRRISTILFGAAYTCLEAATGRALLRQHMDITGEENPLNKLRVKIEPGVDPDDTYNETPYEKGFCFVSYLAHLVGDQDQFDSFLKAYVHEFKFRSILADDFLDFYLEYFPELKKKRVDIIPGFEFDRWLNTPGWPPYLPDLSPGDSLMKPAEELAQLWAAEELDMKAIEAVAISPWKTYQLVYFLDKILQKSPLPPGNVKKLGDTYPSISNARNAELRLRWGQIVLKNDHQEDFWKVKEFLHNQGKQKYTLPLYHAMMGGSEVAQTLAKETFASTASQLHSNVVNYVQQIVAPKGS

leucine aminopeptidase = conditions: cited from earlier work

For CC(C)C[C@H](NC(=O)[C@@H](O)[C@H](N)Cc1ccccc1)C(=O)O [bestatin, [(2S,3R)-3-amino-2-hydroxy-4-phenylbutanoyl]-L-leucine], the Tail-flick latency (male Charles River rats; 400 μg bestatin alone into lateral ventricle, Rat 2, 28 min) was 8.00 s, the Tail-flick latency (male Charles River rats; 400 μg bestatin alone into lateral ventricle, Rat 2, 30 min) was 8.00 s and the Tail-flick latency (male Charles River rats; 400 μg bestatin alone into lateral ventricle, Rat 2, 35 min) was 8.00 s. The Tail-flick latency (male Charles River rats; 400 μg bestatin alone into lateral ventricle, Rat 2, 40 min) was 8.00 s, the Tail-flick latency (male Charles River rats; 400 μg bestatin alone into lateral ventricle, Rat 2, 45 min) was 8.00 s and the Tail-flick latency (male Charles River rats; 400 μg bestatin alone into lateral ventricle, Rat 2, 50 min) was 8.00 s. For the same molecule, the Tail-flick latency (male Charles River rats; 400 μg bestatin alone into lateral ventricle, Rat 2, 55 min) was 8.00 s, the Tail-flick latency (male Charles River rats; 400 μg bestatin alone into lateral ventricle, Rat 2, 60 min) was 8.00 s and the Tail-flick latency (male Charles River rats; 400 μg bestatin alone into lateral ventricle, Rat 2, 75 min) was 8.00 s. The Tail-flick latency (male Charles River rats; 400 μg bestatin alone into lateral ventricle, Rat 2, 90 min) was 8.00 s, the Tail-flick latency (male Charles River rats; 400 μg bestatin alone into lateral ventricle, Rat 2, 105 min) was 8.00 s and the Tail-flick latency (male Charles River rats; 400 μg bestatin alone into lateral ventricle, Rat 2, 120 min) was 8.00 s. The Tail-flick latency (male Charles River rats; 400 μg bestatin alone into lateral ventricle, Rat 2, 135 min) was 8.00 s, the Tail-flick latency (male Charles River rats; 400 μg bestatin alone into lateral ventricle, Rat 2, 150 min) was 8.00 s and the Tail-flick latency (male Charles River rats; 400 μg bestatin alone into lateral ventricle, Rat 2, 165 min) was 8.00 s. The Tail-flick latency (male Charles River rats; 400 μg bestatin alone into lateral ventricle, Rat 2, 180 min) was 8.00 s, the Tail-flick latency (male Charles River rats; 400 μg bestatin alone into lateral ventricle, Rat 2, 195 min) was 8.00 s and the Tail-flick latency (male Charles River rats; 400 μg bestatin alone into lateral ventricle, Rat 2, 210 min) was 8.00 s. It also gave a Tail-flick latency (male Charles River rats; 400 μg bestatin alone into lateral ventricle, Rat 2, 225 min) of 8.00 s, a Tail-flick latency (male Charles River rats; 400 μg bestatin alone into lateral ventricle, Rat 2, 240 min) of 8.00 s and a Tail-flick latency (male Charles River rats; 400 μg bestatin alone into lateral ventricle, Rat 2, 255 min) of 8.00 s. For the same molecule, the Tail-flick latency (male Charles River rats; 400 μg bestatin alone into lateral ventricle, Rat 2, 270 min) was 8.00 s, the Tail-flick latency (male Charles River rats; 400 μg bestatin alone into lateral ventricle, Rat 2, 285 min) was 8.00 s and the Tail-flick latency (male Charles River rats; 400 μg bestatin alone into lateral ventricle, Rat 2, 300 min) was 5.19 s. The Tail-flick latency (male Charles River rats; 400 μg bestatin alone into lateral ventricle, Rat 2, 315 min) was 4.32 s, the Tail-flick latency (male Charles River rats; 400 μg bestatin alone into lateral ventricle, Rat 2, 330 min) was 4.11 s and the Tail-flick latency (male Charles River rats; 400 μg leucine-enkephalin + 200 μg bestatin injected together into lateral ventricle, 1 rat, 2 min) was 7.31 s. For the same molecule, the Tail-flick latency (male Charles River rats; 400 μg leucine-enkephalin + 200 μg bestatin injected together into lateral ventricle, 1 rat, 4 min) was 7.56 s, the Tail-flick latency (male Charles River rats; 400 μg leucine-enkephalin + 200 μg bestatin injected together into lateral ventricle, 1 rat, 6 min) was 5.78 s and the Tail-flick latency (male Charles River rats; 400 μg leucine-enkephalin + 200 μg bestatin injected together into lateral ventricle, 1 rat, 8 min) was 6.69 s. For the same molecule, the Tail-flick latency (male Charles River rats; 400 μg leucine-enkephalin + 200 μg bestatin injected together into lateral ventricle, 1 rat, 10 min) was 6.99 s, the Tail-flick latency (male Charles River rats; 400 μg leucine-enkephalin + 200 μg bestatin injected together into lateral ventricle, 1 rat, 12 min) was 8.00 s and the Tail-flick latency (male Charles River rats; 400 μg leucine-enkephalin + 200 μg bestatin injected together into lateral ventricle, 1 rat, 14 min) was 8.00 s. It also gave a Tail-flick latency (male Charles River rats; 400 μg leucine-enkephalin + 200 μg bestatin injected together into lateral ventricle, 1 rat, 16 min) of 6.50 s, a Tail-flick latency (male Charles River rats; 400 μg leucine-enkephalin + 200 μg bestatin injected together into lateral ventricle, 1 rat, 18 min) of 5.31 s and a Tail-flick latency (male Charles River rats; 400 μg leucine-enkephalin + 200 μg bestatin injected together into lateral ventricle, 1 rat, 20 min) of 2.31 s. For the same molecule, the Tail-flick latency (male Charles River rats; 400 μg leucine-enkephalin + 200 μg bestatin injected together into lateral ventricle, 1 rat, 22 min) was 8.00 s, the Tail-flick latency (male Charles River rats; 400 μg leucine-enkephalin + 200 μg bestatin injected together into lateral ventricle, 1 rat, 24 min) was 6.23 s and the Tail-flick latency (male Charles River rats; 400 μg leucine-enkephalin + 200 μg bestatin injected together into lateral ventricle, 1 rat, 26 min) was 8.00 s. The Tail-flick latency (male Charles River rats; 400 μg leucine-enkephalin + 200 μg bestatin injected together into lateral ventricle, 1 rat, 28 min) was 8.00 s, the Tail-flick latency (male Charles River rats; 400 μg leucine-enkephalin + 200 μg bestatin injected together into lateral ventricle, 1 rat, 30 min) was 8.00 s and the Tail-flick latency (male Charles River rats; 400 μg leucine-enkephalin + 200 μg bestatin injected together into lateral ventricle, 1 rat, 32 min) was 4.90 s. It also gave a Tail-flick latency (male Charles River rats; 400 μg leucine-enkephalin + 200 μg bestatin injected together into lateral ventricle, 1 rat, 34 min) of 8.00 s, a Tail-flick latency (male Charles River rats; 400 μg leucine-enkephalin + 200 μg bestatin injected together into lateral ventricle, 1 rat, 36 min) of 8.00 s and a Tail-flick latency (male Charles River rats; 400 μg leucine-enkephalin + 200 μg bestatin injected together into lateral ventricle, 1 rat, 38 min) of 4.75 s. It also gave a Tail-flick latency (male Charles River rats; 400 μg leucine-enkephalin + 200 μg bestatin injected together into lateral ventricle, 1 rat, 40 min) of 8.00 s, a Tail-flick latency (male Charles River rats; 400 μg leucine-enkephalin + 200 μg bestatin injected together into lateral ventricle, 1 rat, 42 min) of 3.21 s and a Tail-flick latency (male Charles River rats; 400 μg leucine-enkephalin + 200 μg bestatin injected together into lateral ventricle, 1 rat, 44 min) of 3.29 s. The Tail-flick latency (male Charles River rats; 400 μg leucine-enkephalin + 200 μg bestatin injected together into lateral ventricle, 1 rat, 46 min) was 2.47 s, the “Analgesia induced by bestatin alone” value (male Charles River rats; 400 μg level, lateral ventricle, rats) was “very potent analgesia” and the “Effect on the analgesic effects of leucine-enkephalin” value (male Charles River rats; bestatin administered one hour prior to leucine-enkephalin, intraventricular, rat) was “can be extended by bestatin”. For the same molecule, the “Effect on the analgesic effect of leucine-enkephalin” value (male Charles River rats; bestatin given simultaneously with leucine-enkephalin, intraventricular, rat) was “very significantly extend the analgesic effect of leucine-enkephalin”, the “Inhibition of aminopeptidase B” value (aminopeptidase B) was “inhibitors” and the “Inhibition of leucine aminopeptidase” value (leucine aminopeptidase) was “inhibitors”.
